ChEMBL document CHEMBL1811753, “Discovery of potent and selective inhibitors of human platelet-type 12- lipoxygenase” (J Med Chem, 2011)
Values belong to the compound of their own block, whether it stands above or below them. Activity calls are given as the source filed them. No cut-off for these calls is given here.

Legend:
[1] = biological target: T1, Polyunsaturated fatty acid lipoxygenase ALOX12 (Homo sapiens, UniProt P18054); assay: Inhibition of human platelet-type N-terminally His6-tagged 12-lipoxygenase assessed as conjugated diene product formation using arachidonic acid by UV-vis spectrophotometer analysis
T1 sequence (P18054 whole entry): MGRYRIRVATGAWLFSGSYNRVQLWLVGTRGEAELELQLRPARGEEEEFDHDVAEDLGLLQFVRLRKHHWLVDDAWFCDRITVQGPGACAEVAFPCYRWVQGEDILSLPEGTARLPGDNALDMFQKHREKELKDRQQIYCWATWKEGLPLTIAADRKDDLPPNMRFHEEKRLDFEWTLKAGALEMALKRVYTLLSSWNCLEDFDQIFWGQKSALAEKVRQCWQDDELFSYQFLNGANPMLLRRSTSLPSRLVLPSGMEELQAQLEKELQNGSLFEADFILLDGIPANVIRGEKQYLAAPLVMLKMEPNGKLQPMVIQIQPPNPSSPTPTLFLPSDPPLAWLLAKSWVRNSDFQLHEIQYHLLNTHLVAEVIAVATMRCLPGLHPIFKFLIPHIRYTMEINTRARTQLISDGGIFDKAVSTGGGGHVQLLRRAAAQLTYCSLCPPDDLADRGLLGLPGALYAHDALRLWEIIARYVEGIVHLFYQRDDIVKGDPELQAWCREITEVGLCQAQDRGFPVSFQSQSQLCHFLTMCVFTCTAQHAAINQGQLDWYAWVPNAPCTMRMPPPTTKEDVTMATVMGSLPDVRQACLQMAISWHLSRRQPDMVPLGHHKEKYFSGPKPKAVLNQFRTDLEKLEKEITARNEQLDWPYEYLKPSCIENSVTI

[2] = tested on: Radical scavenging activity; assay: Antioxidant activity assessed as DPPH radical scavenging activity at 5 uM; type: functional
[3] = biological target: T2, Polyunsaturated fatty acid 5-lipoxygenase (Homo sapiens, UniProt P09917); assay: Inhibition of human 5-lipoxygenase assessed as conjugated diene product formation using arachidonic acid by UV-vis spectrophotometer analysis
T2 sequence (P09917 whole entry): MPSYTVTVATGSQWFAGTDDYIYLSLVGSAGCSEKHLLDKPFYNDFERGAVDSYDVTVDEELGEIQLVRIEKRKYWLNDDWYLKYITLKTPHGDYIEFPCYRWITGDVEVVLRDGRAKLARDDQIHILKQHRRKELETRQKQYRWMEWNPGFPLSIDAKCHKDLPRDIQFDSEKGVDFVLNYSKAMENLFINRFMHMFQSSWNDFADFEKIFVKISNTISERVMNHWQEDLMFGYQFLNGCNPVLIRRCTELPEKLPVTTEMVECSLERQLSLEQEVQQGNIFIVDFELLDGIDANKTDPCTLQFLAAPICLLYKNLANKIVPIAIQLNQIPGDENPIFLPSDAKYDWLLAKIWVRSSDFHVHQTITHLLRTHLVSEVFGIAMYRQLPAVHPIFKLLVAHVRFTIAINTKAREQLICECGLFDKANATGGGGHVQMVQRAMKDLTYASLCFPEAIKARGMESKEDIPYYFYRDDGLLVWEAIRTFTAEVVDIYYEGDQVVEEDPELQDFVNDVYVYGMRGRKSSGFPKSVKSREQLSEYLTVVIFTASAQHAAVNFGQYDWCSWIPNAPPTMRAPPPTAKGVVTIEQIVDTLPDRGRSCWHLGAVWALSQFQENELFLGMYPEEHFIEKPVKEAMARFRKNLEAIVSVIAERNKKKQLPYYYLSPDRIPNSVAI

[4] = biological target: T3, Polyunsaturated fatty acid lipoxygenase ALOX15 (Homo sapiens, UniProt P16050); assay: Inhibition of human reticulocyte N-terminally His6-tagged 15-lipoxygenase-1 assessed as conjugated diene product formation using arachidonic acid by UV-vis spectrophotometer analysis
T3 sequence (P16050 whole entry): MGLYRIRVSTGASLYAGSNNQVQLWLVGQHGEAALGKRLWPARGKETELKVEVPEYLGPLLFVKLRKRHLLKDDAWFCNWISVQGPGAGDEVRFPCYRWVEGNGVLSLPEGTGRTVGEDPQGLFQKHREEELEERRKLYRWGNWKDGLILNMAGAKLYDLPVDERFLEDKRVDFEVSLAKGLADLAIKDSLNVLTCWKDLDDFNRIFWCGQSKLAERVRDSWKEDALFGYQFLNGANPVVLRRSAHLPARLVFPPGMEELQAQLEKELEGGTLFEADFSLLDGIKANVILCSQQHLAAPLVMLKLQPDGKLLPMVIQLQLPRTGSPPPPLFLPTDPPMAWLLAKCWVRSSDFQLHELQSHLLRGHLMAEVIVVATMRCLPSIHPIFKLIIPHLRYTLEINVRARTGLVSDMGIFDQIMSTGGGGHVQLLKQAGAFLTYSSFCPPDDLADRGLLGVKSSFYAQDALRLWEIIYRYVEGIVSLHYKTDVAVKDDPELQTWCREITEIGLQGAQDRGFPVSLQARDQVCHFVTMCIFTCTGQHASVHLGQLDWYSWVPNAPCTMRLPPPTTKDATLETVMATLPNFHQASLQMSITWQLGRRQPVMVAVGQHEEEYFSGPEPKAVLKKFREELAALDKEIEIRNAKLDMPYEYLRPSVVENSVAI

[5] = biological target: T4, Polyunsaturated fatty acid lipoxygenase ALOX15B (Homo sapiens, UniProt O15296); assay: Inhibition of human reticulocyte N-terminally His6-tagged 15-lipoxygenase-2 assessed as conjugated diene product formation using arachidonic acid by UV-vis spectrophotometer analysis
T4 sequence (O15296 whole entry): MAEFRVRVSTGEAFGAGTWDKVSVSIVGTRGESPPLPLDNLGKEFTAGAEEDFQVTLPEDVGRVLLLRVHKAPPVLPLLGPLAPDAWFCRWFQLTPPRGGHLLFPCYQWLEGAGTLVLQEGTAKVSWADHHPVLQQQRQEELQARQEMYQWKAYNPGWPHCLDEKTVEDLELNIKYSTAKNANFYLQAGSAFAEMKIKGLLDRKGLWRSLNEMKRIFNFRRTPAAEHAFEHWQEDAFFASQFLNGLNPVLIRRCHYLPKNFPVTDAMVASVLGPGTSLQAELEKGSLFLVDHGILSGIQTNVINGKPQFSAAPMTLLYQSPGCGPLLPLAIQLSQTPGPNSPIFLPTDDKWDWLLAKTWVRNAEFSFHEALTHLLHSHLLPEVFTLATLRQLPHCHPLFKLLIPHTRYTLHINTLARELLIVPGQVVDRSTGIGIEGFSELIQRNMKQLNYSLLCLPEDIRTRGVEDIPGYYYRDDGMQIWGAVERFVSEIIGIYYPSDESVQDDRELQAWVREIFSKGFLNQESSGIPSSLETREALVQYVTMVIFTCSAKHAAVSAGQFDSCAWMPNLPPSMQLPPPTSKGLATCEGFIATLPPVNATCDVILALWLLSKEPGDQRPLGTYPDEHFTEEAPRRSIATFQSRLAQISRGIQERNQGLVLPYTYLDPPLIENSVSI

Homo sapiens [6] = species: Homo sapiens; assay: Selectivity ratio of IC50 for human reticulocyte N-terminally His6-tagged 15-lipoxygenase-1 to IC50 for human platelet-type N-terminally His6-tagged 12-lipoxygenase
Homo sapiens [7] = species: Homo sapiens; assay: Selectivity ratio of IC50 for human 5-lipoxygenase to IC50 for human platelet-type N-terminally His6-tagged 12-lipoxygenase
Homo sapiens [8] = species: Homo sapiens; assay: Selectivity ratio of IC50 for human reticulocyte N-terminally His6-tagged 15-lipoxygenase-2 to IC50 for human platelet-type N-terminally His6-tagged 12-lipoxygenase
[9] = biological target: T3, Polyunsaturated fatty acid lipoxygenase ALOX15
[10] = biological target: T1, Polyunsaturated fatty acid lipoxygenase ALOX12; assay: Inhibition of human platelet-type 12-lipoxygenase
[11] = biological target: T5, Polyunsaturated fatty acid lipoxygenase ALOX12 (Homo sapiens) (UniProt P18054); assay: Uncompetitive inhibition of human platelet-type N-terminally His6-tagged 12-lipoxygenase assessed as 12-HPETE formation using arachidonic acid by Michaelis-Menten equation analysis
T5 sequence (whole entry): T1 sequence (P18054 whole entry)

[12] = biological target: T5, Polyunsaturated fatty acid lipoxygenase ALOX12 (Homo sapiens); assay: Competitive inhibition of human platelet-type N-terminally His6-tagged 12-lipoxygenase assessed as 12-HPETE formation using arachidonic acid by Michaelis-Menten equation analysis
[13] = biological target: T5, Polyunsaturated fatty acid lipoxygenase ALOX12 (Homo sapiens); details: 100 uM
[14] = biological target: T5, Polyunsaturated fatty acid lipoxygenase ALOX12 (Homo sapiens); details: 10 uM
[15] = biological target: T5, Polyunsaturated fatty acid lipoxygenase ALOX12 (Homo sapiens); details: 10 uM; remark: listed apart in the source
[16] = biological target: T1, Polyunsaturated fatty acid lipoxygenase ALOX12; assay: cell-based

IC50 [1]: > 75 µM
Structure (SMILES): CC(=O)NC(c1ccco1)c1cc(Cl)c2ccc(N3CCCCC3)nc2c1O (configuration not stated)

IC50 [1]: > 25 µM
Structure (SMILES): O=C(NC(c1ccco1)c1cc(Cl)c2cccnc2c1O)c1ccccc1 (configuration not stated)

IC50 [3]: > 100 µM
IC50 [4]: > 50 µM
IC50 [5]: > 100 µM
Ratio IC50 (Homo sapiens [6]): > 50
Ratio IC50 (Homo sapiens [7]): > 100
Ratio IC50 (Homo sapiens [8]): > 100
Structure (SMILES): CCC(=O)NC(c1ccco1)c1cc(Cl)c2cccnc2c1O (configuration not stated)

IC50 [1]: > 75 µM
Structure (SMILES): CC(=O)NC(c1ccco1)c1cc(Cl)c2ccc(Cl)nc2c1O (configuration not stated)

IC50 [1]: > 150 µM
Structure (SMILES): CC(=O)NC(C)c1cc(Cl)c2cccnc2c1O (configuration not stated)

IC50 [3]: > 100 µM
IC50 [4]: > 25 µM
Kiuc [11]: 0.8 µM
Kic [12]: 0.7 µM
Ratio IC50 (Homo sapiens [6]): 25
Ratio IC50 (Homo sapiens [7]): > 100
Structure (SMILES): CC(=O)NC(c1cccs1)c1cc(Cl)c2cccnc2c1O (configuration not stated)

IC50 [1]: > 75 µM
Structure (SMILES): CCC(=O)NC(c1ccc(Br)o1)c1cc(Cl)c2cccnc2c1O (configuration not stated)

IC50 [1]: > 75 µM
Structure (SMILES): CC(=O)NC(c1ccco1)c1cc(Cl)c2ccccc2c1O (configuration not stated)

IC50 [1]: > 25 µM
Structure (SMILES): Cc1ccc(C(=O)NC(c2ccco2)c2cc(Cl)c3cccnc3c2O)cc1 (configuration not stated)

IC50 [1]: > 75 µM
Structure (SMILES): CC(=O)NC(c1ccco1)c1cc(Cl)c2ccc(N(C)C)nc2c1O (configuration not stated)

IC50 [1]: > 75 µM
Structure (SMILES): CCC(=O)NC(c1ccco1)c1cc(Cl)c2cccnc2c1OC (configuration not stated)

More lines, now with the values behind:

Structure (SMILES): CCC(=O)NC(c1ccco1)c1cc(Cl)c2c(c1O)NCCC2 (configuration not stated)
IC50 [1]: 3 µM

Structure (SMILES): CC(Cc1ccc(O)c(O)c1)C(C)Cc1ccc(O)c(O)c1 (configuration not stated)
Activity [2]: Active

Structure (SMILES): CC(=O)NC(C)c1cc(F)c2cccnc2c1O (configuration not stated)
IC50 [1]: > 75 µM

Structure (SMILES): CCC(=O)NC(c1cccs1)c1ccc2cccnc2c1O (configuration not stated)
IC50 [3]: > 100 µM
IC50 [4]: > 50 µM
IC50 [5]: > 100 µM
Ratio IC50 (Homo sapiens [6]): > 15
Ratio IC50 (Homo sapiens [7]): > 29
Ratio IC50 (Homo sapiens [8]): > 29

Structure (SMILES): Oc1c(Br)c(Br)c(Br)c(Br)c1Oc1ccc(Br)cc1Br
IC50 [9]: 0.7 µM
IC50 [10]: 1.8 µM

Structure (SMILES): CC(=O)NCc1cc(Cl)c2cccnc2c1O
IC50 [1]: > 150 µM

Structure (SMILES): CCC(=O)NC(c1cccs1)c1cc([N+](=O)[O-])c2cccnc2c1O (configuration not stated)
IC50 [4]: > 25 µM
Activity [2]: inactive
inhibition [13]: Active
inhibition [14]: 68.9%
inhibition [15]: 70%
IC50 [16]: 15 µM

Structure (SMILES): CCC(=O)NC(C)c1cc(Cl)c2cccnc2c1O (configuration not stated)
IC50 [1]: > 50 µM

Structure (SMILES): Oc1c(Cl)cc(Cl)c2cccnc12 [CHLOROXINE]
IC50 [1]: 1.9 µM
IC50 [3]: 3.6 µM
IC50 [4]: 2.4 µM
IC50 [5]: 28 µM

Structure (SMILES): CC(C)(c1ccc(O)c(Br)c1)c1cc(Br)c(O)c(Br)c1
IC50 [9]: 7 µM
IC50 [10]: 5 µM

Structure (SMILES): CCC(=O)NC(c1ccc(F)cc1)c1cc(Cl)c2cccnc2c1O (configuration not stated)
IC50 [1]: > 50 µM
